Results as given in patent EP2698385A1, “Detection of synthetic cannabinoids” (priority 2012, dated 2014).

Assays:
[1] = test system: antibodies raised to Immunogens I & II; assay: Competitive ELISA (Example 19), sensitivity and cross-reactivity of selected molecules, one result for both antibodies; type: binding, sheep; details: for % CR / IC50: first Table 3, Standard Conc 750.00 ng/ml; for binding / cross-reaction with antibodies raised from Immunogens I and II: result in words
Protocol: (§1) Aqueous solutions of the immunogens prepared in examples 5 and 13 were formulated with Freund's Complete Adjuvant (FCA) to form emulsions consisting of 2mg/ml Immunogen I and 2mg/ml of Immunogen II in 50%(v/v) FCA. Three sheep were immunised with each emulsion (1° immunisations), 0.25ml being intramuscularly injected at four sites in the rump of each animal. Subsequent immunisations (boosts 2-8) contained 1mg/ml Immunogen I and 1mg/ml Immunogen II. All boosts were emulsified in 50%(v/v) Freund's Incomplete Adjuvant (FIA) and administered to the appropriate sheep in the same manner as the 1° immunisations, at monthly intervals. Blood sampling took place 7-14 days after each boost. Each sample was processed to produce antiserum, which was further purified by caprylic acid and ammonium sulphate precipitation to yield an immunoglobulin (Ig) fraction. The Ig fraction was evaluated by competitive ELISA microtiter plate assay, as described in example 19 below.
(§2) Example 19: Development of competitive ELISA for JWH synthetic cannabinoids and metabolites. • (a) The wells of an enhanced binding 96 well polystyrene microtiter plate were coated with the Ig fraction of the antiserum raised to Immunogen I (Hapten A-BTG - example 5) and diluted in 10mM Tris, pH8.5 (125µl/well). The appropriate antibody coating concentration was determined using standard ELISA checkerboard techniques. The plate was incubated for 2 hours at 37°C, washed 4 times over a 10-minute period with Tris buffered saline containing Tween 20 (TBST) and tapped dry. Standard solutions of JWH synthetic cannabinoids, metabolites and selected molecules were prepared in TBST and 50µl of each was added to the appropriate wells. 75µl of conjugate (Hapten A-HRP) diluted in Tris buffer containing EDTA, D-mannitol, sucrose, thimerosal and BSA, was added to each of the wells. The appropriate dilution of conjugate was also determined using standard ELISA checkerboard techniques. The plate was incubated at 25°C for 1 hour. The excess unbound conjugate was removed by washing 6 times over a 10-minute period with TBST and tapped dry. 125µl of tetramethylbenzedine (TMB) substrate solution was added to each well of the plate that was then incubated for 15-20 minutes in the dark at room temperature. The reaction was terminated by addition of 125µl of 0.2M sulphuric acid to each well. The absorbance was then measured at 450nm using a microtiter plate reader. Employing each series of standards, calibration curves were generated and these were used to determine the specificity of the immunoassay for the JWH synthetic cannabinoids, metabolites and selected molecules. The results of this study are presented in Tables 1 to 3, cross-reactivity being calculated according to the following formula: %CR = […] /IC50,CR X 100 [formula] Where %CR is the percentage cross-reactivity, IC50, YWH-018 is the concentration of JWH-018 that causes 50% displacement of signal and IC50, CR is the concentration of JWH synthetic cannabinoid/metabolite/selected molecule that causes 50% displacement of signal.
Table 2: Data generated from a competitive microtiter plate assay for JWH synthetic cannabinoids and metabolites, employing antiserum raised to Immunogen I (Hapten A-BTG) and conjugate (Hapten A-HRP) as detection reagent. • (c) The resulting competitive ELISA for synthetic cannabinoids and metabolites was further employed to analyse urine and serum samples from 20 patients (Table 3). • (d) The resulting competitive ELISA for synthetic cannabinoids and metabolites was also employed to test for the 5-fluoropentyl derivative of JWH-018, (1-(5-fluoropentyl)indol-3yl (1-naphthyl) methanone (Table 4).

Antibody to Immunogen IV = type: binding, sheep; details: Cross-reactants at 100 ng/ml; Antibody to Immunogen IV
[2] = test system: Antibody to Immunogen VIII; type: binding, sheep; details: Cross-reactants at 100 ng/ml; Antibody to Immunogen VIII
[3] = test system: Antibody to Immunogen VII; type: binding, sheep; details: Cross-reactants at 100 ng/ml; Antibody to Immunogen VII
[4] = test system: antiserum raised to Immunogen II (Hapten B-BTG); assay: Competitive ELISA microtiter plate assay (Example 19), antiserum raised to Immunogen II, Hapten A-HRP conjugate as detection reagent; type: binding, sheep; details: first Table 4, Immunogen II
Protocol: as §1, §2
Table 1: Data generated from a competitive microtiter plate assay for JWH synthetic cannabinoids and metabolites, employing antiserum raised to Immunogen II (Hapten B-BTG) and conjugate (Hapten A-HRP) as detection reagent. (b) In a similar manner to that described in Example 19(a), the wells of a 96 well microtiter plate were coated with the Ig fraction of the antiserum raised to Immunogen II ([…]). Conjugate (Hapten A-HRP) was employed as a detection reagent.

[5] = test system: antiserum raised to Immunogen I (Hapten A-BTG); assay: Competitive ELISA microtiter plate assay (Example 19), antiserum raised to Immunogen I, Hapten A-HRP conjugate as detection reagent; type: binding, sheep; details: first Table 4, Immunogen I
Protocol: as §1, §2
Table 1: Data generated from a competitive microtiter plate assay for JWH synthetic cannabinoids and metabolites, employing antiserum raised to Immunogen II (Hapten B-BTG) and conjugate (Hapten A-HRP) as detection reagent. (b) In a similar manner to that described in Example 19(a), the wells of a 96 well microtiter plate were coated with the Ig fraction of the antiserum raised to Immunogen II ([…]). Conjugate (Hapten A-HRP) was employed as a detection reagent. […]

CB1 receptor = CB1 receptor (Homo sapiens, UniProt P21554); details: result in words; detailed in US6900236; cited from earlier work
Antibody to Immunogen I = type: binding, sheep; details: Cross-reactants at 100 ng/ml; Antibody to Immunogen I
Procedure, shortened: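 Sheep anti-Immunogen I IgG coated on plates, then JWH-018 standards (0–40 ng/ml) competed with hapten-HRP conjugate for 1 h at 25°C. TMB read-out at 450 nm, 4-parameter fit. IC50 is the standard concentration giving 50% B/B0; cross-reactivity of related cannabinoids taken from the calibration curves.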

CB1 receptor, sequence (P21554 whole entry): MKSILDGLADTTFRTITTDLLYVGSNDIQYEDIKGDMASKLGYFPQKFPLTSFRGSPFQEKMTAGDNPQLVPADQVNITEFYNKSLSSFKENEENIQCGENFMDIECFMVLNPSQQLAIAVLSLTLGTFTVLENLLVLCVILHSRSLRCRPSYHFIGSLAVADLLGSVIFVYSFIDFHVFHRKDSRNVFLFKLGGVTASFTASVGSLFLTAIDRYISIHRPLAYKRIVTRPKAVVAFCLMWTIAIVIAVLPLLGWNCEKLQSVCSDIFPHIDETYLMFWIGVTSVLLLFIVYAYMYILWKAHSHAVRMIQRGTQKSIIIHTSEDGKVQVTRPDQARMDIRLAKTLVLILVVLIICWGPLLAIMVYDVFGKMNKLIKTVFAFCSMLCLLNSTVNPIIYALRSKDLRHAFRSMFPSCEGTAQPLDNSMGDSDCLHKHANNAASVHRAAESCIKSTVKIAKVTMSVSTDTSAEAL

Compound | % CR [1] [%] | IC50 [1] [ng/mL] | %B/B0 (Antibody to Immunogen IV) [%] | %B/B0 [2] [%] | %B/B0 [3] [%] | also measured
O=C(O)Cc1c[nH]c2ccc(O)cc12 [5-hydroxyindole-3-acetic acid (5-HIAA), 5-hydroxyindole-3-acetic acid] | < 0.28 | > 750.00 | 96.61 | 108.24 | 99.46 | 
CCCCCn1cc(C(=O)O)c2ccccc21 [3-Carboxy-N-pentyl-1H -indole, 3-carboxy-1-pentyl-1H-indole] | < 0.28 | > 750.00 |  |  |  | 
O=C(c1cccc2ccccc12)c1cn(CCCCCF)c2ccccc12 [5-Fluoropentyl derivative, 1-(5-Fluoropentyl)indol-3-yl (1-naphthyl) methanone] |  |  |  |  |  | IC50 [4]: 0.22 ng/mL; % Cross-reactivity ([4]; JWH-018 = 100): 908.00%; IC50 [5]: 0.02 ng/mL; % Cross-reactivity ([5]; JWH-018 = 100): 11500.00%; binding / cross-reaction with antibodies raised from Immunogens I and II [1]: binds; binding to the CB1 receptor (CB1 receptor): known to bind
CCCCCc1cc(O)c2c(c1)OC(C)(C)[C@@H]1CCC(C)=C[C@@H]21 [Delta 9 THC] | < 0.28 | > 750.00 | 93.62 | 96.10 | 96.76 | 
CCCCCCC(C)(C)c1ccc([C@H]2CCC[C@@H](O)C2)c(O)c1 (racemic) [CP-49,497-C7 ((+-) CP 47,497), CP 47,497] | < 0.28 | > 750.00 | 96.84 | 86.95 | 94.23 | %B/B0 (Antibody to Immunogen I): 101.20%
CCCCCc1cc(O)c2c(c1)OC(C)(C)c1ccc(C)cc1-2 [Cannabinol] | < 0.28 | > 750.00 | 94.74 | 94.03 | 95.43 | 
CCCCCc1cc(O)c2c(c1)OC(C)(C)[C@@H]1CCC(CO)=C[C@@H]21 [11-Hydroxy-δ-9-THC] | < 0.28 | > 750.00 |  |  |  | 
CCn1cc(C(=O)c2cccc3ccccc23)c2ccccc21 [JWH-071] |  |  |  |  |  | binding / cross-reaction with antibodies raised from Immunogens I and II [1]: bind
OCCc1c[nH]c2ccc(O)cc12 [5-hydroxytryptophol] | < 0.28 | > 750.00 | 94.51 | 102.93 | 98.45 | 
COc1cccc2[nH]cc(CCN(C)C)c12 [4-Methoxypsilocin] | < 0.28 | > 750.00 |  |  |  | 
O=C(O)c1c[nH]c2ccccc12 [Indole-3-carboxylic Acid] | < 0.28 | > 750.00 | 93.42 | 96.28 | 96.90 | binding / cross-reaction with antibodies raised from Immunogens I and II [1]: do not cross-react
NCCc1c[nH]c2ccc(O)cc12 [Serotonin] | < 0.28 | > 750.00 |  |  |  | 
